pIC50: −log10 of the molar value. *1 amine or outer side, *2 acyl side, *3 side chain or, on linkers, in order; H or OH if unused. Where a SMILES comes first, the peptide text is derived from it. [ ]: non-standard residue; d: D form. X1 = NCCCC[C@@H](CCC(=O)[*:2])N[*:1]; Gly(octyl) = CCCCCCCC[C@H](N)C(=O)O; N(CH2CH2COOH)Gly = O=C(O)CCNCC(=O)O; β3hQ = NC(=O)CC[C@H](N)CC(=O)O; β3hK = NCCCC[C@H](N)CC(=O)O; Nlys = NCCCCNCC(=O)O

Assay type in all cases: biochemical
In test [1] the target is T1, human neutrophil elastase (Homo sapiens, UniProt P08246).
T1 construct: purchased Serva Electrophoresis, Germany
T1 sequence (P08246 30-267): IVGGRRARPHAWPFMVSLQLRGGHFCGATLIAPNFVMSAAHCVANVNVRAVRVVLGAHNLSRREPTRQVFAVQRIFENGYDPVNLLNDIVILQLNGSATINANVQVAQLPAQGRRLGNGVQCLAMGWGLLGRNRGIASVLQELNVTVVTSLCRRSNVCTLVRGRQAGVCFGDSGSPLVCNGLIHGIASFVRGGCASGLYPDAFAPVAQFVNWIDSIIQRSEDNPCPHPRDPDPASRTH
The test can be described thus: Inhibition of human neutrophil elastase (hydrolysis of MeOSuc-AAPV-pNA). The note with it: substrate MeOSuc-AAPV-pNA 0.3 mM, enzyme 10 nM, 37° C., pH 8; read-out: Human neutrophil elastase (hNE) IC50. The method in brief: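 MeOSuc-AAPV-pNA (0.3 mM) hydrolysis by 10 nM enzyme at 37° C with serially diluted peptides (1% DMSO) in 50 mM Tris pH 8, 300 mM NaCl, 0.01% Tween20. pNA release read at 405 nm over 30 minutes; IC50 from 4-parameter Hill fit.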

In test [2] the target is T2, porcine pancreatic elastase (Sus scrofa, UniProt P00772).
T2 construct: purchased Sigma, USA
T2 sequence (P00772 27-266): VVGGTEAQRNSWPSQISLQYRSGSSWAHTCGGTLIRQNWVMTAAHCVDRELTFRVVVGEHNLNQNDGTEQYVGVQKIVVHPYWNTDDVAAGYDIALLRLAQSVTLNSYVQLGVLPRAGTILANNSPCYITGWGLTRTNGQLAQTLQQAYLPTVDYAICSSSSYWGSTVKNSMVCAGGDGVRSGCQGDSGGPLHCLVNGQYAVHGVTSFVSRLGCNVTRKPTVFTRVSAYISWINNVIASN
The test can be described thus: Inhibition of porcine pancreatic elastase (hydrolysis of MeOSuc-AAA-pNA). The note with it: for hNE/PPE selectivity: ratio of PPE IC50 to hNE IC50; for pIC50: substrate MeOSuc-AAA-pNA 1 mM, enzyme 15 nM, 37° C., pH8, read-out: Porcine pancreatic elastase (PPE) IC50. The gist of the method: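 Elastase (15 nM) incubated at 37 °C with 1 mM MeOSuc-AAA-pNA and serially diluted peptides (0.5% DMSO) in 50 mM Tris pH 8, 100 mM NaCl, 0.01% Tween20. pNA release read at 405 nm over 30 min; IC50 from 4-parameter Hill fit.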

The next test has as its target T3, human proteinase 3 (Homo sapiens, UniProt P24158).
T3 construct: purchased Elastin Products Company, USA
T3 sequence (P24158 28-248): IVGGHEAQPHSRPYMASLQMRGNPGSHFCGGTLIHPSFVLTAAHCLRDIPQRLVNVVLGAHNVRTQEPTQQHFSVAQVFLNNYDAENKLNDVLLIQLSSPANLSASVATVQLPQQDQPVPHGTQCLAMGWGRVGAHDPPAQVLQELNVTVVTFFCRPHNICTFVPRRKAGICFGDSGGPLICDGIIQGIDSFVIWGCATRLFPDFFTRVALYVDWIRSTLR
The test can be described thus: Inhibition of human proteinase 3 (substrate Boc-Ala-Ala-Nva-SBzl). The note with it: for hNE/hPr3 selectivity: ratio of hPr3 IC50 to hNE IC50; for pIC50: substrate Boc-Ala-Ala-Nva-SBzl 1 mM, enzyme 10 nM, 37° C., pH7.4, read-out: Human proteinase 3 (hPr3) IC50. The gist of the method: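 Enzyme at 10 nM incubated at 37°C with 1 mM thiobenzyl ester substrate, 250 μM 4,4′-dithiodipyridine and serial peptide dilutions (0.5% DMSO) in Tris pH 7.4, 150 mM NaCl, 0.01% Tween20. Absorbance at 340 nm followed over 30 min; IC50 from 4-parameter Hill fit.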

For orientation: pIC50 means the IC50 on a negative log10 scale, so that one unit is a factor of ten. In the case of `CCCCCCCC[C@@H]1NC(=O)[C@H](CCC(=O)O)NC(=O)[C@@H](CCCCN)NC(=O)[C@H]([C@@H](C)O)NC(=O)[C@H](CCCCN)NC(=O)[C@H](CCC(N)=O)NC(=O)[C@@H]2CCCN2C(=O)[C@@H]2CCCN2C(=O)[C@H]([C@@H](C)CC)NC(=O)[C@H](CO)NC(=O)[C@H](C)NC(=O)[C@H]([C@@H](C)O)NC(=O)[C@H](CCC(=O)O)NC1=O` [Example 29, Cyclo(-OctGly-Glu-Thr-Ala-Ser-Ile-Pro-Pro-Gln-Lys-Thr-^DLys-Glu-)] (cyclo([Gly(octyl)]ETASIPPQKT[dK]E)), the negative-log IC50 (pIC50) in test [1] is 7.93. For the same compound, in test [2], the hNE/PPE selectivity is given as 1085 and the negative logarithm of the IC50 (pIC50) is 4.89. Moreover, at human proteinase 3, the hNE/hPr3 selectivity came out at 5305 and the negative-log IC50 (pIC50) is 4.20.
As to `CCCCCCCC[C@@H]1NC(=O)[C@H](C(C)C)NC(=O)[C@@H](CO)NC(=O)[C@H]([C@@H](C)O)NC(=O)[C@H](CCCCN)NC(=O)[C@H](CCC(N)=O)NC(=O)[C@@H]2CCCN2C(=O)[C@@H]2CCCN2C(=O)[C@H]([C@@H](C)CC)NC(=O)[C@H](CO)NC(=O)[C@H](C)NC(=O)[C@H]([C@@H](C)O)NC(=O)[C@H](CCC(=O)O)NC1=O` [Example 30, Cyclo(-OctGly-Glu-Thr-Ala-Ser-Ile-Pro-Pro-Gln-Lys-Thr-^DSer-Val-)] (cyclo([Gly(octyl)]ETASIPPQKT[dS]V)), the pIC50 in test [1] was 7.92. In test [2], the hNE/PPE selectivity stood at 4267 and the negative logarithm of the IC50 (pIC50) is 4.29. Besides, at human proteinase 3, the hNE/hPr3 selectivity is 1192 and the pIC50 is 4.84.
On to `CCCCCCCC[C@@H]1NC(=O)[C@H](Cc2ccc(O)cc2)NC(=O)[C@@H](CO)NC(=O)[C@H]([C@@H](C)O)NC(=O)[C@H](CCCCN)NC(=O)[C@H](CCC(N)=O)NC(=O)[C@@H]2CCCN2C(=O)[C@@H]2CCCN2C(=O)[C@H]([C@@H](C)CC)NC(=O)[C@H](CO)NC(=O)[C@H](C)NC(=O)[C@H]([C@@H](C)O)NC(=O)[C@H](CCC(=O)O)NC1=O` [Example 31, Cyclo(-OctGly-Glu-Thr-Ala-Ser-Ile-Pro-Pro-GI n-Lys-Thr-^DSer-Tyr-)] (cyclo([Gly(octyl)]ETASIPPQKT[dS]Y)), for which the pIC50 was 7.64 in test [1], 4.28 in test [2] and 4.48 at human proteinase 3. In test [2], the hNE/PPE selectivity is reported as 2275. Further, the hNE/hPr3 selectivity on human proteinase 3 worked out at 1432.
The corresponding values for `CCCCCCCC[C@@H]1NC(=O)[C@H](CCCCN)NC(=O)[C@@H](CO)NC(=O)[C@H]([C@@H](C)O)NC(=O)[C@H](CCCCN)NC(=O)[C@H](CCC(N)=O)NC(=O)[C@@H]2CCCN2C(=O)[C@@H]2CCCN2C(=O)[C@H]([C@@H](C)CC)NC(=O)[C@H](CO)NC(=O)[C@H](C)NC(=O)[C@H]([C@@H](C)O)NC(=O)[C@H](CCC(=O)O)NC1=O` [Example 32, Cyclo(-OctGly-Glu-Thr-Ala-Ser-Ile-Pro-Pro-GI n-Lys-Thr-^DSer-Lys-)] (cyclo([Gly(octyl)]ETASIPPQKT[dS]K)) are 7.65, 4.05, < 4.00, 4036 and >4484.
Taken in the same sequence, the figures for `CCCCCCCC[C@@H]1NC(=O)[C@@H]2CCCN2C(=O)[C@H]2CCCN2C(=O)[C@H]([C@@H](C)O)NC(=O)[C@H](CCCCN)NC(=O)[C@H](CCC(N)=O)NC(=O)[C@@H]2CCCN2C(=O)CN(CCCCN)C(=O)[C@H]([C@@H](C)CC)NC(=O)[C@H](CO)NC(=O)[C@H](C)NC(=O)[C@H]([C@@H](C)O)NC(=O)[C@H](CCC(=O)O)NC1=O` [Example 33, Cyclo(-OctGly-Glu-Thr-Ala-Ser-Ile-Nlys-Pro-Gln-Lys-Thr-^DPro-Pro-)] (cyclo([Gly(octyl)]ETASI[Nlys]PQKT[dP]P)) were 8.15, 5.08, 5.21, 1186 and 871.
In the case of `CCCCCCCC[C@@H]1NC(=O)[C@@H]2CCCN2C(=O)[C@H]2CCCN2C(=O)[C@H]([C@@H](C)O)NC(=O)[C@H](CCCCN)NC(=O)[C@H](CCC(N)=O)NC(=O)CN(CCC(=O)O)C(=O)[C@@H]2CCCN2C(=O)[C@H]([C@@H](C)CC)NC(=O)[C@H](CO)NC(=O)[C@H](C)NC(=O)[C@H]([C@@H](C)O)NC(=O)[C@H](CCC(=O)O)NC1=O` [Example 34, Cyclo(-OctGly-Glu-Thr-Ala-Ser-Ile-Pro-Nglu-Gln-Lys-Thr-^DPro-Pro-)] (cyclo([Gly(octyl)]ETASIP[N(CH2CH2COOH)Gly]QKT[dP]P)), the pIC50 in test [1] was 7.52; in test [2], 4.81; on human proteinase 3, 5.28. The hNE/PPE selectivity in test [2] is listed as 512. Moreover, the hNE/hPr3 selectivity at human proteinase 3 worked out at 172.
Taken in the same sequence, the figures for `CCCCCCCC[C@@H]1NC(=O)[C@@H]2CCCN2C(=O)[C@H]2CCCN2C(=O)[C@H]([C@@H](C)O)NC(=O)[C@H](CCCCN)NC(=O)[C@H](CCC(N)=O)NC(=O)CN(CCCCN)C(=O)[C@@H]2CCCN2C(=O)[C@H]([C@@H](C)CC)NC(=O)[C@H](CO)NC(=O)[C@H](C)NC(=O)[C@H]([C@@H](C)O)NC(=O)[C@H](CCC(=O)O)NC1=O` [Example 35, Cyclo(-OctGly-Glu-Thr-Ala-Ser-Ile-Pro-Nlys-Gln-Lys-Thr-^DPro-Pro-)] (cyclo([Gly(octyl)]ETASIP[Nlys]QKT[dP]P)) were 8.11, 5.80, 5.82, 208 and 195.
The corresponding values for `CCCCCCCC[C@@H]1NC(=O)[C@@H]2CCCN2C(=O)[C@H]2CCCN2C(=O)[C@H]([C@@H](C)O)NC(=O)[C@H](CCCCN)NC(=O)C[C@H](CCC(N)=O)NC(=O)[C@@H]2CCCN2C(=O)[C@@H]2CCCN2C(=O)[C@H]([C@@H](C)CC)NC(=O)[C@H](CO)NC(=O)[C@H](C)NC(=O)[C@H]([C@@H](C)O)NC(=O)[C@H](CCC(=O)O)NC1=O` [Example 36, Cyclo(-OctGly-Glu-Thr-Ala-Ser-Ile-Pro-Pro-[H-β^3-HGln-OH]-Lys-Thr-^DPro-Pro-)] (cyclo([Gly(octyl)]ETASIPP[β3hQ]KT[dP]P)) are 7.79, 4.95, 5.23, 685 and 364.
Taken in the same sequence, the figures for `CCCCCCCC[C@@H]1NC(=O)[C@@H]2CCCN2C(=O)[C@H]2CCCN2C(=O)[C@H]([C@@H](C)O)NC(=O)C[C@H](CCCCN)NC(=O)[C@H](CCC(N)=O)NC(=O)[C@@H]2CCCN2C(=O)[C@@H]2CCCN2C(=O)[C@H]([C@@H](C)CC)NC(=O)[C@H](CO)NC(=O)[C@H](C)NC(=O)[C@H]([C@@H](C)O)NC(=O)[C@H](CCC(=O)O)NC1=O` [Example 37, Cyclo(-OctGly-Glu-Thr-Ala-Ser-Ile-Pro-Pro-Gln-[H-β^3-H Lys-OH]-Thr-^DPro-Pro-)] (cyclo([Gly(octyl)]ETASIPPQ[β3hK]T[dP]P)) were 7.38, 5.06, 4.81, 212 and 371.
For the compound `CCCCCCCC[C@@H]1NC(=O)[C@@H]2CCCN2C(=O)[C@H]2CCCN2C(=O)[C@H]([C@@H](C)O)NC(=O)CC[C@H](CCCCN)NC(=O)[C@H](CCC(N)=O)NC(=O)[C@@H]2CCCN2C(=O)[C@@H]2CCCN2C(=O)[C@H]([C@@H](C)CC)NC(=O)[C@H](CO)NC(=O)[C@H](C)NC(=O)[C@H]([C@@H](C)O)NC(=O)[C@H](CCC(=O)O)NC1=O` [Example 38, Cyclo(-OctGly-Glu-Thr-Ala-Ser-Ile-Pro-Pro-Gln-[H-γ^4-DiHLys-OH]-Thr-^DPro-Pro-)] (cyclo([Gly(octyl)]ETASIPPQ[X1]T[dP]P)), in test [1], the negative-log IC50 (pIC50) was 7.76. Also, in test [2], the hNE/PPE selectivity is 535 and the negative logarithm of the IC50 (pIC50) was 5.04. Moreover, at human proteinase 3, the hNE/hPr3 selectivity is listed as 535 and the negative logarithm of the IC50 (pIC50) was 5.04.
